Source: patent US6087119A, “Method for determining the catalytic activity of factor IXa” (Roche Diagnostics GmbH, priority 1996, dated 2000)
Square brackets hold non-standard residues; d marks the D form. Peptide text beside a SMILES is read from it. * marks the point of attachment. dChg = N[C@@H](C(=O)O)C1CCCCC1; pNA = O=[N+]([O-])c1ccc(N*)cc1; Ms = CS(=O)(=O)*

How the values were obtained:
rFIXa (human) = rFIXa (human) (Homo sapiens, UniProt P00740); test: Kinetics of cleavage of chromogenic peptide substrates by rFIXa with ethylene glycol (Lineweaver Burk); format: biochemical; set-up: coding for the FIX protease domain from amino acid position 181 to 415; Met (ATG start codon) (N); made in house; conditions: pH 7.4
Sequence of rFIXa (human) (P00740 227-461): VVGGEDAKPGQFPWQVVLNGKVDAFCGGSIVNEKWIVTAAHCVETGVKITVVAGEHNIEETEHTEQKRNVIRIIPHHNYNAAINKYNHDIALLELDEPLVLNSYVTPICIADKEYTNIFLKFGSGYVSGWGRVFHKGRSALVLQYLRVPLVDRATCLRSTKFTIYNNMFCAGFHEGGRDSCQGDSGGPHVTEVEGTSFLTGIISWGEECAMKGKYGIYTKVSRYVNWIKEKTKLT
Sequence of rFIXa (human) (P00740 131-226): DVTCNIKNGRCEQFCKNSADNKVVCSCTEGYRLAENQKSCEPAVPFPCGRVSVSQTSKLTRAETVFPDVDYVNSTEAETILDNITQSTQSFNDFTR
Protocol: (§1) MeSO2 -D-HHT-Gly-Arg-pNA (0.102-1.02 mmol/l)
0.48 μmol/l rFIXa (human)
MOC-D-Nle-Gly-Arg-pNA (0.102-1.02 mmol/l)
MeSO2 -D-CHG-Gly-Arg-pNA (0.102-1.02 mmol/l)
0.28 μmol/l rFIXa (human)
(§2) The kinetic constants (Kcat /Km) were determined graphically according to Lineweaver Burk (Km and Kcat cannot be determined separately since the straight lines go through the origin).

native FIXa (human) = native FIXa (human) (Homo sapiens, UniProt P00740); test: Kinetics of cleavage of chromogenic peptide substrate by native FIXa with ethylene glycol (Lineweaver Burk); format: biochemical; set-up: 0.14 μmol/l native FIXa (human); conditions: native FIXa 0.29 μmol/l, pH 7.4
Sequence of native FIXa (human) (P00740 227-461 limits assumed): as the sequence (P00740 227-461) above
Sequence of native FIXa (human) (P00740 47-191 partner limits assumed): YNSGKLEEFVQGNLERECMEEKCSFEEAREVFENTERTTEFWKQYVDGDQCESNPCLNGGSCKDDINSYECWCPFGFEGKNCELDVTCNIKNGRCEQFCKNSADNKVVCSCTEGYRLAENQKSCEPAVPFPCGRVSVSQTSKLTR
Protocol: as §1
0.29 μmol/l native FIXa (human)
as §2

Row | kkat /Km (rFIXa (human); rFIXa 0.48 μmol/l, 8% ethylene glycol) | kkat /Km (rFIXa (human); rFIXa 0.48 μmol/l, 16% ethylene glycol) | kkat /Km (rFIXa (human); rFIXa 0.48 μmol/l, 25% ethylene glycol) | kkat /Km (rFIXa (human); rFIXa 0.48 μmol/l, 33% ethylene glycol) | kkat /Km (rFIXa (human); rFIXa 0.48 μmol/l, 41% ethylene glycol) | kkat /Km (rFIXa (human); rFIXa 0.48 μmol/l, 50% ethylene glycol) | kkat /Km (native FIXa (human); 8% ethylene glycol) | kkat /Km (native FIXa (human); 16% ethylene glycol) | kkat /Km (native FIXa (human); 25% ethylene glycol) | kkat /Km (native FIXa (human); 33% ethylene glycol) | kkat /Km (native FIXa (human); 41% ethylene glycol) | kkat /Km (native FIXa (human); 50% ethylene glycol) | kkat /Km (rFIXa (human); substrate MeSO2-D-CHG-Gly-Arg-pNA, rFIXa […], 8% ethylene glycol) | kkat /Km (rFIXa (human); substrate MeSO2-D-CHG-Gly-Arg-pNA, rFIXa […], 16% ethylene glycol) | kkat /Km (rFIXa (human); substrate MeSO2-D-CHG-Gly-Arg-pNA, rFIXa […], 25% ethylene glycol) | kkat /Km (rFIXa (human); substrate MeSO2-D-CHG-Gly-Arg-pNA, rFIXa […], 33% ethylene glycol) | kkat /Km (rFIXa (human); substrate MeSO2-D-CHG-Gly-Arg-pNA, rFIXa […], 41% ethylene glycol) | kkat /Km (rFIXa (human); substrate MeSO2-D-CHG-Gly-Arg-pNA, rFIXa […], 50% ethylene glycol) | Structure (SMILES)
1 | 348 M⁻¹ s⁻¹ | 515 M⁻¹ s⁻¹ | 1018 M⁻¹ s⁻¹ | 1018 M⁻¹ s⁻¹ | 692 M⁻¹ s⁻¹ | 172 M⁻¹ s⁻¹ | 299 M⁻¹ s⁻¹ | 737 M⁻¹ s⁻¹ | 1169 M⁻¹ s⁻¹ | 1395 M⁻¹ s⁻¹ | 922 M⁻¹ s⁻¹ | 390 M⁻¹ s⁻¹ |  |  |  |  |  |  | CS(=O)(=O)N[C@H](CC1CCC(O)CC1)C(=O)NCC(=O)N[C@@H](CCCNC(=N)N)C(=O)Nc1ccc([N+](=O)[O-])cc1 (stereo partly drawn) [MeSO2 --D--HHT--Gly--Arg--pNA, MeSO2 -D-HHT-Gly-Arg-pNA]
2 |  |  |  |  |  |  |  |  |  |  |  |  | 637 M⁻¹ s⁻¹ | 1974 M⁻¹ s⁻¹ | 2880 M⁻¹ s⁻¹ | 3480 M⁻¹ s⁻¹ | 1929 M⁻¹ s⁻¹ | 576 M⁻¹ s⁻¹ | CS(=O)(=O)N[C@@H](C(=O)NCC(=O)N[C@@H](CCCNC(=N)N)C(=O)Nc1ccc([N+](=O)[O-])cc1)C1CCCCC1 [MeSO2 --D--CHG--Gly--Arg--pNA, MeSO2 -D-CHG-Gly-Arg-pNA] (Ms-[dChg]-Gly-Arg-pNA)
